Assay results published in PubChem BioAssay AID248 (DTP/NCI, 2004).
Several values for one entry are separate records, joined by “and”; a condition that tells them apart may be missing. Identical values can stand only once. Inconclusive results and toxic doses are left out.

Tested on: L1210 leukemia ip in BDF1 mice, survival T/C
Experiment: NCI In Vivo Anticancer Drug Screen. Data for tumor model L1210 Leukemia (intraperitoneal) in B6D2F1 (BDF1) mice
Details: endpoint: mean survival time, higher = longer survival
Method in brief: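 Antitumor effect is assessed in tumor-bearing animals. Survival in the compound arm is compared with a vehicle-dosed control arm and expressed as their quotient.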

With `O=c1cnn(C2OC(CO)C(O)C2O)c(=O)[nH]1` (stereo unspecified) the T/C (dose: 12.5 mg/kg/injection, schedule: Q#A X Z (ip), vehicle: saline) was 160 % of control, the T/C (dose: 25.0 mg/kg/injection, schedule: Q01DX Z (im), vehicle: saline) was 150 % of control and the T/C (dose: 25.0 mg/kg/injection, schedule: Q01DX Z (ip), vehicle: methylcellulose (MC)) was 120 % of control. The T/C (dose: 25.0 mg/kg/injection, schedule: Q01DX Z (ip), vehicle: saline) was 156 % of control, the T/C (dose: 25.0 mg/kg/injection, schedule: Q#A X Z (ip), vehicle: saline) was 156 % of control and the T/C (dose: 32.0 mg/kg/injection, schedule: Q01DX009 (oral), vehicle: saline) was 151 % of control. For the same compound, the T/C (dose: 50.0 mg/kg/injection, schedule: Q01DX010 (ip), vehicle: saline) was 120 % of control, the T/C (dose: 50.0 mg/kg/injection, schedule: Q01DX Z (im), vehicle: saline) was 156 % of control and the T/C (dose: 50.0 mg/kg/injection, schedule: Q01DX Z (ip), vehicle: methylcellulose (MC)) was 120 % of control. The T/C (dose: 50.0 mg/kg/injection, schedule: Q01DX Z (ip), vehicle: saline) was 159 % of control, the T/C (dose: 50.0 mg/kg/injection, schedule: Q01DX Z (oral), vehicle: other) was 158 % of control and the T/C (dose: 50.0 mg/kg/injection, schedule: Q#A X Z (ip), vehicle: saline) was 164 % of control. For the same compound, the T/C (dose: 75.0 mg/kg/injection, schedule: Q01DX005 (ip), vehicle: saline) was 112 % of control, the T/C (dose: 88.0 mg/kg/injection, schedule: Q01DX Z (ip), vehicle: methylcellulose (MC)) was 122 % of control and the T/C (dose: 100.0 mg/kg/injection, schedule: Q01DX010 (ip), vehicle: saline) was 123 % of control. The T/C (dose: 100.0 mg/kg/injection, schedule: Q01DX Z (ip), vehicle: methylcellulose (MC)) was 116 % of control, the T/C (dose: 100.0 mg/kg/injection, schedule: Q01DX Z (oral), vehicle: saline) was 151 % of control and the T/C (dose: 100.0 mg/kg/injection, schedule: Q#A X Z (ip), vehicle: saline) was 176 % of control. The T/C (dose: 128.0 mg/kg/injection, schedule: Q03HX016 (oral), vehicle: saline) was 116 % of control, the T/C (dose: 132.0 mg/kg/injection, schedule: Q01DX Z (ip), vehicle: methylcellulose (MC)) was 117 % of control and the T/C (dose: 150.0 mg/kg/injection, schedule: Q01DX005 (ip), vehicle: saline) was 115 % of control. The T/C (dose: 150.0 mg/kg/injection, schedule: Q01DX Z (oral), vehicle: saline) was 172 % of control, the T/C (dose: 150.0 mg/kg/injection, schedule: Q## X003 (ip), vehicle: saline) was 105 % of control and the T/C (dose: 152.0 mg/kg/injection, schedule: Q## X024 (ip), vehicle: saline) was 123 % of control. For the same compound, the T/C (dose: 180.0 mg/kg/injection, schedule: Q01DX009 (ip), vehicle: saline) was 120 % of control, the T/C (dose: 200.0 mg/kg/injection, schedule: Q#A X Z (ip), vehicle: saline) was 176 % of control and the T/C (dose: 256.0 mg/kg/injection, schedule: Q03HX016 (ip), vehicle: saline) was 153 % of control. For the same compound, the T/C (dose: 300.0 mg/kg/injection, schedule: Q01DX005 (ip), vehicle: saline) was 118 % of control, the T/C (dose: 300.0 mg/kg/injection, schedule: Q01DX009 (oral), vehicle: saline) was 123 % of control and the T/C (dose: 300.0 mg/kg/injection, schedule: Q01DX Z (oral), vehicle: saline) was 159 % of control. For the same compound, the T/C (dose: 300.0 mg/kg/injection, schedule: Q03DX Z (ip), vehicle: other) was 119 % of control, the T/C (dose: 300.0 mg/kg/injection, schedule: Q## X003 (ip), vehicle: saline) was 106 % of control and the T/C (dose: 304.0 mg/kg/injection, schedule: Q## X024 (ip), vehicle: saline) was 151 % of control. For the same compound, the T/C (dose: 350.0 mg/kg/injection, schedule: Q01DX001 (ip), vehicle: saline) was 109 % of control, the T/C (dose: 350.0 mg/kg/injection, schedule: Q07DX Z (ip), vehicle: saline) was 109 % of control and the T/C (dose: 400.0 mg/kg/injection, schedule: Q01DX Z (oral), vehicle: other) was 191 % of control. For the same compound, the T/C (dose: 400.0 mg/kg/injection, schedule: Q#A X Z (ip), vehicle: saline) was 158 % of control, the T/C (dose: 512.0 mg/kg/injection, schedule: Q03HX016 (ip), vehicle: saline) was 162 % of control and the T/C (dose: 512.0 mg/kg/injection, schedule: Q03HX016 (oral), vehicle: saline) was 158 % of control. For the same compound, the T/C (dose: 600.0 mg/kg/injection, schedule: Q01DX001 (ip), vehicle: saline) was 101 % of control, the T/C (dose: 600.0 mg/kg/injection, schedule: Q01DX001 (oral), vehicle: saline) was 109 % of control and the T/C (dose: 600.0 mg/kg/injection, schedule: Q01DX001 (sc), vehicle: saline) was 106 % of control. For the same compound, the T/C (dose: 600.0 mg/kg/injection, schedule: Q01DX005 (ip), vehicle: saline) was 121 % of control, the T/C (dose: 600.0 mg/kg/injection, schedule: Q01DX009 (oral), vehicle: saline) was 118 % of control and the T/C (dose: 600.0 mg/kg/injection, schedule: Q01DX Z (oral), vehicle: saline) was 154 % of control. For the same compound, the T/C (dose: 600.0 mg/kg/injection, schedule: Q## X002 (ip), vehicle: saline) was 98 % of control, the T/C (dose: 600.0 mg/kg/injection, schedule: Q## X003 (ip), vehicle: saline) was 107 % of control and the T/C (dose: 600.0 mg/kg/injection, schedule: Q## X008 (ip), vehicle: saline) was 119 % of control. The T/C (dose: 600.0 mg/kg/injection, schedule: Q## X016 (ip), vehicle: saline) was 117 % of control, the T/C (dose: 700.0 mg/kg/injection, schedule: Q01DX001 (ip), vehicle: saline) was 113 % of control and 116 % of control and the T/C (dose: 700.0 mg/kg/injection, schedule: Q07DX Z (ip), vehicle: other) was 111 % of control. For the same compound, the T/C (dose: 700.0 mg/kg/injection, schedule: Q07DX Z (ip), vehicle: saline) was 113 % of control, the T/C (dose: 800.0 mg/kg/injection, schedule: Q01DX009 (ip), vehicle: saline) was 110 % of control and the T/C (dose: 800.0 mg/kg/injection, schedule: Q01DX Z (im), vehicle: saline) was 151 % of control. The T/C (dose: 800.0 mg/kg/injection, schedule: Q## X000 (other), vehicle: other) was 107 % of control, the T/C (dose: 800.0 mg/kg/injection, schedule: Q#A X Z (ip), vehicle: saline) was 101 % of control and the T/C (dose: 1024.0 mg/kg/injection, schedule: Q03HX016 (ip), vehicle: saline) was 176 % of control. The T/C (dose: 1024.0 mg/kg/injection, schedule: Q03HX016 (oral), vehicle: saline) was 161 % of control, the T/C (dose: 1200.0 mg/kg/injection, schedule: Q01DX001 (oral), vehicle: saline) was 112 % of control and the T/C (dose: 1200.0 mg/kg/injection, schedule: Q01DX001 (sc), vehicle: saline) was 110 % of control. For the same compound, the T/C (dose: 1200.0 mg/kg/injection, schedule: Q01DX009 (ip), vehicle: saline) was 98 % of control, the T/C (dose: 1200.0 mg/kg/injection, schedule: Q01DX009 (oral), vehicle: saline) was 100 % of control and the T/C (dose: 1200.0 mg/kg/injection, schedule: Q01DX009 (sc), vehicle: saline) was 94 % of control. For the same compound, the T/C (dose: 1200.0 mg/kg/injection, schedule: Q01DX Z (oral), vehicle: saline) was 104 % of control, the T/C (dose: 1200.0 mg/kg/injection, schedule: Q03DX Z (ip), vehicle: other) was 158 % of control and the T/C (dose: 1200.0 mg/kg/injection, schedule: Q## X002 (ip), vehicle: saline) was 110 % of control. The T/C (dose: 1200.0 mg/kg/injection, schedule: Q## X003 (ip), vehicle: saline) was 114 % of control, the T/C (dose: 1200.0 mg/kg/injection, schedule: Q## X008 (ip), vehicle: saline) was 123 % of control and the T/C (dose: 1200.0 mg/kg/injection, schedule: Q## X024 (ip), vehicle: saline) was 155 % of control. For the same compound, the T/C (dose: 1400.0 mg/kg/injection, schedule: Q01DX001 (ip), vehicle: saline) was 115 % of control and 116 % of control, the T/C (dose: 1400.0 mg/kg/injection, schedule: Q07DX Z (ip), vehicle: other) was 117 % of control and the T/C (dose: 1600.0 mg/kg/injection, schedule: Q01DX009 (ip), vehicle: saline) was 92 % of control. The T/C (dose: 1600.0 mg/kg/injection, schedule: Q01DX Z (oral), vehicle: other) was 96 % of control, the T/C (dose: 1600.0 mg/kg/injection, schedule: Q01DX Z (oral), vehicle: saline) was 98 % of control and the T/C (dose: 2048.0 mg/kg/injection, schedule: Q03HX016 (ip), vehicle: saline) was 174 % of control. The T/C (dose: 2400.0 mg/kg/injection, schedule: Q01DX001 (oral), vehicle: saline) was 117 % of control, the T/C (dose: 2400.0 mg/kg/injection, schedule: Q01DX001 (sc), vehicle: saline) was 115 % of control and the T/C (dose: 2400.0 mg/kg/injection, schedule: Q03DX Z (ip), vehicle: other) was 151 % of control. The T/C (dose: 2400.0 mg/kg/injection, schedule: Q## X002 (ip), vehicle: saline) was 107 % of control, the T/C (dose: 2400.0 mg/kg/injection, schedule: Q## X024 (ip), vehicle: saline) was 153 % of control and the T/C (dose: 2800.0 mg/kg/injection, schedule: Q01DX001 (ip), vehicle: saline) was 121 % of control. The T/C (dose: 2800.0 mg/kg/injection, schedule: Q07DX Z (ip), vehicle: other) was 124 % of control and the T/C (dose: 3200.0 mg/kg/injection, schedule: Q01DX Z (im), vehicle: saline) was 87 % of control.

`C=C(C)CC/C=C/C` was tested, and the T/C (dose: 50.0 mg/kg/injection, schedule: Q01DX001 (ip), vehicle: saline) was 115 % of control, the T/C (dose: 100.0 mg/kg/injection, schedule: Q01DX001 (ip), vehicle: saline) was 115 % of control and the T/C (dose: 200.0 mg/kg/injection, schedule: Q01DX001 (ip), vehicle: saline) was 110 % of control.
